{
  "source": "paper PMC5641094",
  "about": "“A peptide antagonist of Prep1-p160 interaction improves ceramide-induced insulin resistance in skeletal muscle cells” (Oncotarget, 2017)",
  "key": {"Prep1 mRNA": {"system": "Prep1 mRNA", "experiment": "Real-time RT-PCR of Prep1 mRNA in L6 cells", "assay_type": "cell-based, rat", "conditions": "preliminary data", "procedure": "(§1) Figure 2 Effect of ceramides on Prep1 and p160 mRNA expression and of Prep1-p160 coprecipitation L6 cells were treated with C2cer (10μM) for 18h and Prep1 (A) or p160 (B) mRNA levels were analyzed by real-time RT-PCR analysis. Data were normalized by the amount of GAPDH mRNA, used as internal control. Bars represent the mean ± SD of three independent experiments, each performed in triplicate. (C) L6 cells were treated with cycloheximide (CHX) at 40μg/mL concentration for 18h and the lysates were analyzed by Western blot with anti-p160 and beta-actin. The autoradiograph shown is representative of three different experiments and subjected to densitometric analysis. (D) Protein lysates from L6 cells treated with C2cer as indicated, were immunoprecipitated with Prep1 antibody and immunoblotted with p160 or Prep1 antibodies. The autoradiograph shown is representative of three different experiments and subjected to densitometric analysis. Asterisks denote statistically significant differences (*p<0.05; **p<0.01).\nTotal cellular RNA was isolated from L6 cells by using the RNeasy kit (QIAGEN Sciences, Germany), according to manufacturer instructions. 1μg of cell RNA was reverse-transcribed using Superscript III Reverse Transcriptase (Life Technologies Carlsbad, CA, USA). PCR reactions were analyzed using IQTM SYBR Green Supermix (Bio-Rad, Hercules, CA). […]"}, "[1]": {"system": "Prep1 and p160 protein levels in L6 cells", "experiment": "Western blot of Prep1 and p160 protein levels in L6 cells", "assay_type": "cell-based, rat", "conditions": "CHX 40μg/ml, 18h", "procedure": "Figure 1 Effect of ceramides dose-response and time-course on Prep1 and p160 protein levels L6 skeletal muscle cells were treated with different concentration of C2cer (10μM and 100μM for 18h) (A) and for different time (10μM for 6h and 18h) (B). Protein lysates were analyzed by Western blot using antibodies for Prep1, p160 and for the beta-actin, as a loading control. Blots were detected by ECL and autoradiography. The autoradiographs are representative of four independent experiments. Asterisks denote statistically significant differences (*p<0.05; **p<0.01).\nas §1\nFigure 3 Design and in vitro effects of Prep1(54-72) peptide on Prep1/p160 association (A) Binding curves of Prep1(59-72) and Prep1(54-72) peptides to p160_20-160 by ELISA-like assays. Biotinylated peptides at several concentrations were added in triplicate to a 96-well plate coated with p160_20-160 (0.1μM). Experiments were performed at least twice and the average results fitted using GraphPad Prism. […] (B) Competition binding experiments. His6-tagged-p160_20-160 at 0.25μM was incubated with Prep1(59-72) and Prep1(54-72) at concentrations ranging between 0.001÷10μM and added to a 96-well plate coated with Prep1_45-155 (0.10μM). Results are the average of three independent experiments. (C) L6 cells were incubated with increasing concentrations of the fluorescein-conjugated peptide (FITC-Prep1(54-72)) and peptide uptake was detected by FACS analysis of fluorescein-labeled cells. Bars represent the mean ± SD of four independent experiments. (D) L6 muscle cells incubated with Prep1(54-72) were stimulated with C2cer (10μM) for 18h. Protein lysates were immunoprecipitated with Prep1 antibodies and analyzed by Western blot using antibodies for p160 or for Prep1. (E) An aliquot of the lysate was used to measure protein expression of Prep1 and p160 and the beta-actin used as loading control. The blots were detected by ECL and autoradiography. The autoradiograph is representative of three independent experiments. Asterisks denote statistically significant differences (*p<0.05; **p<0.01).\nL6 rat skeletal muscle cells (ATCC, Manassas, VA, USA) were cultured in DMEM supplemented with 10% FBS and 1% penicillin/streptomycin solution at 37°C in a humidified 95% air and 5% CO2 atmosphere (all vol./vol.). […]\nTotal cell lysates were obtained and separated by SDS-PAGE. […] The protein concentrations in the cell lysates were measured using a Bio-Rad DC (detergent compatible) assay. […]"}, "p160_20-160": {"target": "T1, p160_20-160 (Homo sapiens, UniProt Q9BQG0)", "T1 construct": "were added to a plate coated with p160_20-160 (0.1μM); His6; made in house", "T1 sequence (Q9BQG0 20-160)": "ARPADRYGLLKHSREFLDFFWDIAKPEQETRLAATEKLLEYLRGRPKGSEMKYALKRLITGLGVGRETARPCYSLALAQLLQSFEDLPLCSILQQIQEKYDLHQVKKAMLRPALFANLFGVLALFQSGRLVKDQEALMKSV", "experiment": "ELISA-like direct binding of biotinylated Prep1 peptides to coated p160_20-160", "conditions": "N-terminally biotinylated peptide variants; plate coated with p160_20-160 (0.1μM); streptavidin-HRP; one-site binding fit; triplicate, performed at least twice", "from_the_text": "To address the significance of the association between Prep1 and p160 mediated by C2cer, we generated a synthetic inhibitor of the Prep1/p160 interaction. […] The synthetic peptide covering such stretch of residues was therefore chosen to generate a potential inhibitor. […] Thus, we designed and chemically synthesized a peptide spanning residues 59-72, hereafter Prep1(59-72), which comprises the predicted α-helix and a short loop at the N-terminus (Supplementary Figure 2A, upper panel). […]\n(§2) Figure 3 Design and in vitro effects of Prep1(54-72) peptide on Prep1/p160 association (A) Binding curves of Prep1(59-72) and Prep1(54-72) peptides to p160_20-160 by ELISA-like assays. […] (C) L6 cells were incubated with increasing concentrations of the fluorescein-conjugated peptide (FITC-Prep1(54-72)) and peptide uptake was detected by FACS analysis of fluorescein-labeled cells. […] Protein lysates were immunoprecipitated with Prep1 antibodies and analyzed by Western blot using antibodies for p160 or for Prep1. […] The blots were detected by ECL and autoradiography. […]\nELISA experiments were performed using an integrated platform for High-Throughput Screening (Hamilton Robotics, Bonaduz, CH) comprising a fully equipped Starlet 8 channel liquid handler, a robotic arm, a washer and a multi-wavelength plate reader. […] The binding was detected by anti-His HRP-conjugated antibody. […]"}, "[2]": {"target": "T2, p160_20-160/Prep1_45-155 binding (Homo sapiens, UniProt Q9BQG0)", "T2 construct": "pre-incubating the His6-tagged-p160_20-160 at 0.25μM with peptides; made in house", "T2 sequence (Q9BQG0 20-160)": "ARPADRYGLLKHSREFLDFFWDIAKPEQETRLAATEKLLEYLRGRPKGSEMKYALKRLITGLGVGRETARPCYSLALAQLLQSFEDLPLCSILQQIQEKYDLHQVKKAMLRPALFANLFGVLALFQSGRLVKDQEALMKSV", "experiment": "ELISA-like competition of p160_20-160/Prep1_45-155 binding", "conditions": "His6-p160_20-160 0.25μM pre-incubated with peptide 0.001-10μM; plate coated with Prep1_45-155 (0.10μM); anti-His HRP; average of three experiments", "from_the_text": "To address the significance of the association between Prep1 and p160 mediated by C2cer, we generated a synthetic inhibitor of the Prep1/p160 interaction. […] The synthetic peptide covering such stretch of residues was therefore chosen to generate a potential inhibitor. […] Thus, we designed and chemically synthesized a peptide spanning residues 59-72, hereafter Prep1(59-72), which comprises the predicted α-helix and a short loop at the N-terminus (Supplementary Figure 2A, upper panel). We also designed and prepared an additional peptide with a slightly longer N-terminal end, named Prep1(54-72) (Supplementary Figure 2A, lower panel), to increase the probability of obtaining a molecule with helical features. […] In order to test the affinity of Prep1 synthetic peptides to p160 protein, ELISA-like experiments were developed where N-terminally biotinylated peptide variants were added to p160_20-160 – coated 96-well plates. As shown in Figure 3A either variants bound p160_20-160 domain in a dose-dependent and saturable manner. […]\nas §2\nELISA experiments were performed using an integrated platform for High-Throughput Screening (Hamilton Robotics, Bonaduz, CH) comprising a fully equipped Starlet 8 channel liquid handler, a robotic arm, a washer and a multi-wavelength plate reader. […] In particular, several concentrations of biotinylated peptides at several concentrations were added to a plate coated with p160_20-160 (0.1μM) and binding was detected with streptavidin-HRP. […] The binding was detected by anti-His HRP-conjugated antibody. […]"}, "L6 cells [3]": {"system": "L6 cells", "experiment": "Glycogen content in L6 cells", "assay_type": "cell-based, rat", "conditions": "insulin 100nM, mean of three experiments", "procedure": "(§3) Figure 6 Effect of Prep1(54-72) peptide on glycogen content and 2-DG uptake L6 control and Prep1 overexpressing cells were stimulated with Insulin (100nM) and/or C2cer (10μM) and incubated with Prep1(54-72). (A) Glycogen content and (B) 2-DG uptake were measured as described in methods. Bars represent the mean ± SD of three independent experiments. Asterisks denote statistically significant differences (*p<0.05; **p<0.01; ***p<0.001).\n(§4) Glycogen was isolated from L6 cells homogenized in 0.1% SDS, saturated with Na2SO4 for 30 minutes at 37°C, followed by ethanol (EtOH) precipitation. Glycogen content was determined as previously described. 2-DG uptake by the L6 cells was measured as previously reported."}, "[4]": {"system": "IR tyrosine phosphorylation", "experiment": "IR tyrosine phosphorylation, immunoprecipitation and Western blot", "assay_type": "cell-based, rat", "conditions": "L6 cells, insulin 100nM", "procedure": "(§5) Figure 4 Prep1(54-72) peptide restores the insulin signaling inhibited by C2cer and Prep1 L6 cells were stimulated with insulin (100nM) and incubated with Prep1(54-72) in presence of C2cer at 10μM for 18h (A-B) or stable transfection of Prep1 (C-D). Protein lysates were immunoprecipitated with specific IR or IRS1 antibodies and analyzed by Western blot using antibodies for phosphotyrosines (pY) and beta-actin as loading control. Blots were detected by ECL and autoradiography. The autoradiographs are representative of three independent experiments. Asterisks denote statistically significant differences (*p<0.05; **p<0.01).\n(§6) Total cell lysates were obtained and separated by SDS-PAGE. Briefly, cells were solubilized with lysis buffer containing 50mM HEPES, 150mM NaCl, 10mM EDTA, 10mM Na4P2O7, 2mM sodium orthovanadate, 50mM NaF, 1mM phenylmethylsulfonyl fluoride, 10μg/ml aprotinin, 10μg/ml leupeptin, pH 7.4, and 1% (v/v) Triton X-100. Lysates were clarified by centrifugation at 12,000g for 20 minutes at 4°C. The protein concentrations in the cell lysates were measured using a Bio-Rad DC (detergent compatible) assay. Immunoprecipitation and Western blot analysis have been performed as previously described."}, "L6 cells [5]": {"system": "L6 cells", "experiment": "2-DG uptake in L6 cells", "assay_type": "cell-based, rat", "conditions": "insulin 100nM, mean of three experiments", "procedure": "as §3, §4"}, "[6]": {"system": "IRS1 tyrosine phosphorylation", "experiment": "IRS1 tyrosine phosphorylation, immunoprecipitation and Western blot", "assay_type": "cell-based, rat", "conditions": "L6 cells, insulin 100nM", "procedure": "as §5, §6"}, "His6-tagged p160(20-160)": {"target": "T3, His6-tagged p160(20-160) (UniProt Q7TPV4 20-160)", "T3 construct": "also called His6-p160(20-160); p160(20-160) domain", "T3 sequence (looked up)": "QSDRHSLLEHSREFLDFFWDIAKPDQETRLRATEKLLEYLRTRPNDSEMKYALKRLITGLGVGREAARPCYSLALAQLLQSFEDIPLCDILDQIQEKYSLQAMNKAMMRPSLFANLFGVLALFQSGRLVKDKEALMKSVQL", "experiment": "ELISA; ELISA-like direct binding: 96-well plate coated with p160(20-160) (0.1 uM); biotinylated peptides at several concentrations added in triplicate; detection with streptavidin-HRP; one-site binding fit (GraphPad Prism)", "conditions": "both partners purified"}},
  "note": "Ends that are not written are not given here. * marks the point of attachment. Biotin = O=C1N[C@H]2[C@H](CS[C@H]2CCCCC(=O)*)N1",
  "data": [
    {"molecule": "Cc1ccc(NCCCc2ccccc2)c(N)c1", "note": "[JSH-23]", "values": [
      {"measurement": "effect on C2cer-induced Prep1 mRNA expression", "setting": "Prep1 mRNA", "value": "reverts the effect of C2cer"}
    ]},
    {"molecule": "C[C@@H]1C[C@@H]([C@H](O)CC2CC(=O)NC(=O)C2)C(=O)[C@@H](C)C1", "note": "[cycloheximide (CHX), cycloheximide]", "values": [
      {"measurement": "reduction of p160 cellular levels", "setting": "[1]", "value": 50, "unit": "%"}
    ]},
    {"molecule": "Ac-RHPLFPLLALLFEK-NH2 [Prep1(59-72)]", "values": [
      {"measurement": "Kd", "setting": "p160_20-160", "value": 1.25, "unit": "µM"},
      {"measurement": "IC50, inhibition of p160_20-160/Prep1_45-155 binding", "setting": "[2]", "value": "did not converge to a meaningful value"}
    ]},
    {"molecule": "insulin: insulin used at 100nM to stimulate L6 cells", "values": [
      {"measurement": "stimulation of glycogen synthesis", "setting": "L6 cells [3]", "value": 1.3, "unit": "fold"},
      {"measurement": "stimulation of IR tyrosine phosphorylation", "setting": "[4]", "value": 1.5, "unit": "fold"},
      {"measurement": "stimulation of glucose uptake (2-DG)", "setting": "L6 cells [5]", "value": 2.1, "unit": "fold"},
      {"measurement": "stimulation of IRS1 tyrosine phosphorylation", "setting": "[6]", "value": 1.1, "unit": "fold"}
    ]},
    {"molecule": "Biotin-RHPLFPLLALLFEK (Prep1 (Pbx regulating protein 1), stretch of the HR1 domain, named residues 59-72; source: synthetic peptide (Fmoc solid phase, RP-HPLC purified), biotin labelled)", "note": "[N-terminally biotinylated Prep1(59-72) peptide]", "values": [
      {"measurement": "Kd", "setting": "His6-tagged p160(20-160)", "value": "1.25 ± 0.08", "unit": "µM"}
    ]},
    {"molecule": "Biotin-KQAIYRHPLFPLLALLFEK (Prep1 (Pbx regulating protein 1), stretch of the HR1 domain, named residues 54-72; source: synthetic peptide (Fmoc solid phase, RP-HPLC purified), biotin labelled)", "note": "[N-terminally biotinylated Prep1(54-72) peptide]", "values": [
      {"measurement": "Kd", "setting": "His6-tagged p160(20-160)", "value": "0.18 ± 0.04", "unit": "µM"}
    ]}
  ]
}
